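Compound exposure: 48 hours, 5 concentrations, 96-well plates. The concentration for 50% growth inhibition is given as GI50.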 The source made the active and inactive calls. Rule as the data show it: active = GI50 up to about 1.1 µM and inactive = higher. Some results are limits rather than exact numbers.

From ChEMBL document CHEMBL1201862, “PubChem BioAssay data set” (2004) come the findings set out here.

Some test systems named below: SK-MEL-28; SF-268; IGROV-1; MDA-MB-231; MOLT-4; COLO 205; A549; CCRF-CEM; SNB-19; SR; K562; NCI-H460; M14; PC-3; RXF 393; OVCAR-3; NCI-H226; DU-145; CAKI-1; HOP-92.
Test in all cases: NCI-60 cell line screen, 48 h

As to `CC(C)(CCCCC(C)(C)[N+](C)(C)C)[N+](C)(C)C`, the GI50 in the assay with SK-MEL-28, with SF-268, in the assay with IGROV-1, with MDA-MB-231, in the assay on MOLT-4 and in the assay on COLO 205 was > 100 µM (inactive) throughout. In addition, the GI50 in the assay with A549, in the assay with CCRF-CEM, with SNB-19, in the assay with SR, with K562 and in the assay on NCI-H460 was > 100 µM (inactive) in each case. Also, the GI50 in the assay with M14 and with PC-3 was > 100 µM (inactive) in each case.

As to `CC12CCC(CC1=O)C2(C)CCC(N)=O` (stereo not given), the GI50 in the assay with SK-MEL-28, in the assay on SF-268, with IGROV-1, in the assay with MDA-MB-231, with MOLT-4 and with RXF 393 was > 100 µM (inactive) each time. Also, the GI50 in the assay on COLO 205, in the assay with A549, in the assay with OVCAR-3, with NCI-H226, in the assay on CCRF-CEM and in the assay with SNB-19 was > 100 µM (inactive) in each case. Also, the GI50 with DU-145, with CAKI-1, in the assay with K562, with M14 and in the assay with PC-3 was > 100 µM (inactive) in each case.

With `O=C1N[C@H]2[C@H](O)[C@H](O)[C@@H](O)[C@H](O)[C@@H]2c2cc3c(c(O)c21)OCO3` [PANCRATISTATIN], the GI50 is 0.0414 µM (active) in the assay with SK-MEL-28; 0.0391 µM (active) in the assay with SF-268; 0.0516 µM (active) in the assay on IGROV-1; 0.0344 µM (active) in the assay with MDA-MB-231; 0.0309 µM (active) with MOLT-4; 0.0316 µM (active) with HOP-92. The GI50 is 0.0434 µM (active) in the assay with RXF 393; 0.0288 µM (active) with COLO 205; 0.0893 µM (active) in the assay on A549; 0.0376 µM (active) in the assay with OVCAR-3; 0.0375 µM (active) in the assay on NCI-H226; 0.0324 µM (active) in the assay with CCRF-CEM. Further, the GI50 was 0.0301 µM (active) in the assay on SNB-19; 0.106 µM (active) in the assay on SR; 0.0306 µM (active) with DU-145; 0.0331 µM (active) with CAKI-1; 0.0373 µM (active) in the assay with K562; 0.0457 µM (active) in the assay with NCI-H460. Further, the GI50 in the assay with M14 was 0.262 µM (active).

On to `C=C(CN(C)C)C(=O)c1ccccc1C`, for which the GI50 in the assay on SK-MEL-28 is 9.89 µM (inactive); in the assay on SF-268, 77.1 µM (inactive); with IGROV-1 it was > 100 µM (inactive); with MOLT-4, 7.52 µM (inactive); with HOP-92, 17.7 µM (inactive); with RXF 393 it was 12.9 µM (inactive). The GI50 is 15.5 µM (inactive) with COLO 205; > 100 µM (inactive) in the assay on A549; 33.1 µM (inactive) with OVCAR-3; > 100 µM (inactive) in the assay on NCI-H226; 7.85 µM (inactive) in the assay on CCRF-CEM; > 100 µM (inactive) with SNB-19. Also, the GI50 in the assay with SR was 14.2 µM (inactive); in the assay on DU-145 it was > 100 µM (inactive); in the assay on CAKI-1 it was 27.5 µM (inactive); in the assay on K562, 15.7 µM (inactive); with NCI-H460, > 100 µM (inactive); in the assay on M14, 18.1 µM (inactive).

On to `COc1ccc(-c2cc(=O)c3c(OC)c(OC)c(OC)c(OC)c3o2)cc1OC` [NOBILETIN], for which the GI50 was > 100 µM (inactive) with SK-MEL-28; 66.8 µM (inactive) in the assay with SF-268; 49.2 µM (inactive) in the assay with IGROV-1; 34.5 µM (inactive) with MDA-MB-231; 25.2 µM (inactive) in the assay on MOLT-4; 18.3 µM (inactive) in the assay on HOP-92. In addition, the GI50 in the assay on RXF 393 is 61.5 µM (inactive); in the assay with COLO 205 it was 35 µM (inactive); in the assay on A549, 42.8 µM (inactive); in the assay on OVCAR-3 it was 24.7 µM (inactive); in the assay with NCI-H226, 91.6 µM (inactive); in the assay on CCRF-CEM it was 65.6 µM (inactive). In addition, the GI50 is > 100 µM (inactive) in the assay with SNB-19; 59.7 µM (inactive) with SR; 61.1 µM (inactive) with DU-145; 29.4 µM (inactive) in the assay with CAKI-1; 36.3 µM (inactive) in the assay with K562; 52.8 µM (inactive) with NCI-H460. For the same compound, the GI50 with M14 is 55.8 µM (inactive).

Take `Cn1ncc2c(Cl)ncnc21`: the GI50 in the assay with SK-MEL-28, in the assay on SF-268, in the assay with IGROV-1, in the assay on MOLT-4, in the assay on HOP-92 and in the assay with RXF 393 was > 100 µM (inactive) in each case. Moreover, the GI50 in the assay on COLO 205, with A549, with OVCAR-3, in the assay with NCI-H226, with SNB-19 and in the assay with SR was > 100 µM (inactive) throughout. Besides, the GI50 with DU-145, in the assay on CAKI-1, with K562, in the assay on NCI-H460, in the assay on M14 and in the assay with PC-3 was > 100 µM (inactive) in each case.

Turning to `COc1cc(C2SCC(=O)N2NC(=O)c2ccc(NC(C)=O)cc2OC)ccc1O` (stereo not given), the GI50 is > 100 µM (inactive) with SK-MEL-28; 23.7 µM (inactive) with SF-268; 58.2 µM (inactive) in the assay with IGROV-1; > 100 µM (inactive) in the assay on MOLT-4; 29.4 µM (inactive) with HOP-92; 39.3 µM (inactive) in the assay with RXF 393. The GI50 is > 100 µM (inactive) in the assay with COLO 205; 54.2 µM (inactive) in the assay with A549; > 100 µM (inactive) with OVCAR-3; > 100 µM (inactive) in the assay on CCRF-CEM; 30.3 µM (inactive) in the assay with SNB-19; > 100 µM (inactive) in the assay on SR. Moreover, the GI50 in the assay on DU-145 was 21 µM (inactive); in the assay with CAKI-1, > 100 µM (inactive); with K562, > 100 µM (inactive); in the assay on M14, > 100 µM (inactive); in the assay on PC-3, 37.4 µM (inactive).

With `COc1ccccc1CNC1=Nc2ccncc2S(=O)(=O)N1c1ccccc1`, the GI50 in the assay with SK-MEL-28 was > 100 µM (inactive); in the assay with IGROV-1, > 100 µM (inactive); in the assay on MOLT-4, 69 µM (inactive); in the assay on HOP-92 it was 39.7 µM (inactive); with RXF 393 it was 2.47 µM (inactive); with COLO 205, 63.4 µM (inactive). Also, the GI50 with A549 was > 100 µM (inactive); in the assay on OVCAR-3, > 100 µM (inactive); in the assay on NCI-H226, > 100 µM (inactive); in the assay on CCRF-CEM it was 95.5 µM (inactive); in the assay with SNB-19 it was > 100 µM (inactive); with SR, 92.7 µM (inactive). The GI50 in the assay on DU-145 was 97.5 µM (inactive); in the assay on CAKI-1, 63.8 µM (inactive); in the assay with K562, 71 µM (inactive); in the assay on NCI-H460, 60.4 µM (inactive); with M14 it was > 100 µM (inactive); with PC-3, 31 µM (inactive).
